# Source: patent US20240398767A1, “INHIBITORS OF THE MTDH-SND1 PROTEIN COMPLEX FOR CANCER THERAPY” (The Trustees of Princeton University, priority 2021, published 2024)
# What was measured:
# PyMT tumorspheres = test: PyMT tumorsphere viability, apoptosis, cell cycle and western blot; type: cell-based, mouse
# Experimental: FIG. 14A, Spheres were treated with vehicle or indicated concentrations of C26-A6 for 1 week. The viability of the spheres was then quantified by MTT assay.
# For FIGS. 14B-14I, similar sphere assay as in FIG. 14A was performed. n≥3 independent experiments. Data represent mean±SEM and significance determined by two tailed Student's t-test for all panels in FIGS. 14B-14I.
# FIG. 15C, Sphere assay was performed and treated with vehicle and C26-A6 as in FIG. 14A. The spheres were collected for western blot to analyze the expression of the candidates.
# To obtain insights into the molecular mechanism underlying C26-A6 treatment-induced reduction of cell viability and increase of apoptosis, in vitro sphere assays were employed. […] To further explore the downstream effectors of tumor-suppressive response to C26-A6, GSEA analysis of PyMT tumor with or without C26-A6 treatment was performed.
# [1] = system: Py8119-OVA cells co-cultured with OT-I splenocytes; test: Py8119-OVA tumor cell / OT-I splenocyte co-culture; type: cell-based, mouse; conditions: 200 μM
# Experimental: FIG. 22C, Py8119-OVA cells co-cultured with OT-I splenocytes were treated with 200 μM of C26-A6 or same amount of vehicle. The binding between MTDH and Tap1/2 in tumor cells were determined by RIP assay.
# FIG. 22D, Tap1/2 RNAs that bind to MTDH in (c) were quantified and normalized to the pulled down MTDH levels.
# FIG. 22E, Tap1/2 levels in Py8119-OVA cells with/without 200 μM of C26-A6 treatment during co-culture were examined by qRT-PCR.
# FIG. 22F, OVA (H-2K^b-SIINFEKL) presentation in Py8119-OVA cells with/without 200 μM of C26-A6 treatment in co-culture were determined by flow cytometry. MFI, Mean Fluorescence Intensity; AU, arbitrary units.
# FIG. 22G, Media in (E) was collected for IFN-γ ELISA and cytotoxicity assay. AU, arbitrary units.
# FIG. 32B, Py8119-OVA cells co-cultured with OT-I splenocytes were treated with 200 μM of C26-A6 or same amount of vehicle. The binding between SND1 and Tap1/2 in tumor cells were determined by RIP assay.
# FIG. 32C, Tap1/2 RNAs that bind to SND1 were quantified and normalized to the pulled down SND1 levels.
# FIG. 32D, MHC-I presentation in Py8119-OVA cells with/without 200 μM of C26-A6 treatment in co-culture were determined by flow cytometry. MFI, mean fluorescence intensity; AU, arbitrary units.
# FIGS. 32E, The expression of CD137 in splenocytes co-cultured with Py8119-OVA was determined by flow cytometry upon 200 μM of C26-A6 or vehicle treatment.
# FIGS. 32F, The expression of IFN-γ in splenocytes co-cultured with Py8119-OVA were determined by flow cytometry upon 200 μM of C26-A6 or vehicle treatment.
# Immune cell and tumor cell co-culture assay. Py8119-OVA tumor cells with various MTDH expression status were plated in 6-well plates for in vitro co-culture in DMEM/F12 media listed above. Once cells reached 50-75% confluency OT-I splenocytes or CD8^+ T cells were added to the tumor cells at the 1:10 ratio (tumor cell. immune cell). After 24 hr of co-culture, the cells and culture media were collected for further experiments.
# RNA-Binding immunoprecipitation (RIP) and western blot (WB). Py8119-OVA tumor cells after co-culture for 24 hr were collected for RIP using RNA-Binding Protein Immunoprecipitation Kit (Millipore, #17-700). Briefly, 5×10^7 tumor cells were resuspended with 200 μL of RIP lysis buffer and frozen at −80° C. for at least 1 hr to lyse the cells. The sample was then centrifuged at 14,000 rpm for 10 min at 4° C. 20 μL of supernatant was transferred to two new tubes with 10 μL each and frozen at −80° C. to serve as input of total. The rest of the supernatant was diluted with 1.8 ml of RIP immunoprecipitation buffer and split equally into two 1.5 ml EP tubes. 5 μg of MTDH (Invitrogen, catalogue #40-6500), SND1 (Santa Cruz, catalogue #sc-271590) or IgG (provided in the Kit) antibody was added into each tube and incubated at 4° C. overnight. The next day, 50 μL of magnetic beads was added and incubated for another 2 hr. The beads were then washed with 500 μL of RIP wash buffer on a magnetic separator for 5 times. During the final wash, 25 μL of the beads in the wash buffer was transferred into a new tube, stored at −80° C. to serve as input of IP. The rest of the beads together and 10 μL input of total were resuspended with 300 μL of proteinase K buffer respectively and incubated at 55° C. for 30 min to degrade proteins. RNA was extracted with phenol:chloroform:isoamyl alcohol and precipitated with 100 μL of Salt Solution I, 30 μL of Salt Solution II, and 10 μL of Precipitation Enhancer at −80° C. overnight. […]
# SCP28 xenograft tumor = SCP28 xenograft tumor model in NSG mice; type: in vivo; conditions: 8 weeks treatment
# Experimental: FIG. 13A, NGS female mice injected with 2 k SCP28 cells orthotopically were subjected to vehicle or C26-A6 treatment after two weeks. Primary tumor volumes were measured.
# FIG. 13B, 8 weeks after treatment, tumor mass was assessed. Vehicle, n=10 mice; C26-A6, n=10 mice. Size bar, 2 cm.
# FIG. 13C, 8 weeks after treatment, lung metastasis was assessed. Vehicle, n=10 mice; C26-A6, n=10 mice. Size bar, 5 mm.
smiles,measurement,setting,value
COc1ccc(Cl)cc1S(=O)(=O)Nc1cccn2nc(C)nc12 [Analog C26-A6],"Cdc20, Plk1, and c-Myc expression (western blot)",PyMT tumorspheres,down-regulated
same,cell cycle status,PyMT tumorspheres; 200 μM,induced G2/M cell cycle arrest
same,"survival (live cells, apoptosis)",PyMT tumorspheres; 200 μM,significantly reduced survival
same,"sphere viability (MTT assay), tumorspheres versus MECs","PyMT tumorspheres; indicated concentrations, 1 week",more susceptible
same,OVA antigen and MHC-I complex presentation (flow cytometry),[1],promotes OVA antigen and MHC-I complex presentation
same,"T cell activation (CD137, IFN-γ)",[1],promotes
same,Tap1/2 binding of MTDH and SND1 (RIP assay),[1],decreased the Tap1/2 binding of MTDH and SND1
same,Tap1/2 mRNA expression level (qRT-PCR),[1],increased the expression level of these mRNAs
same,immune clearance of tumor cells (cytotoxicity assay),[1],sensitizes the tumor cells to immune clearance
same,primary tumor growth and lung metastasis,SCP28 xenograft tumor,confirmed
